The values below come from PubChem BioAssay (NCI).

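Where inhibition never reached the appropriate level, the endpoint shown equals the highest concentration tested. Otherwise, values were interpolated linearly from a five-concentration, 48-hour dose response in 96-well plates. The concentration for full growth arrest is given as TGI.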 Bounds are passed on as bounds.

Some test systems named below: SNB-19 CNS; HCT-116 colon; DU-145 prostate; SNB-75 CNS; HOP-62 NSCLC; UACC-62 melanoma; OVCAR-4 ovarian; NCI/ADR-RES ovarian; MDA-MB-231 breast; HCC-2998 colon; HS 578T breast.
Assay in all cases: inhibition of tumour cell growth, NCI panel, 48 h

Regarding `CC1CC[C@@]2(OC1)O[C@H]1[C@H](O)[C@H]3[C@@H]4CC[C@H]5C[C@@H](OC6OC(CO)C(OC7OC(CO)C(O)C(OC8OCC(O)C(O)C8O)C7OC7OC(CO)C(O)C(O)C7OC7OC(CO)C(O)C(O)C7O)C(O)C6O)[C@H](O)C[C@]5(C)[C@H]4CC[C@]3(C)[C@H]1[C@@H]2C` (stereo not given in full), the TGI in the experiment on SNB-19 CNS, in the experiment on HCT-116 colon, in the experiment with DU-145 prostate, with SNB-75 CNS, with HOP-62 NSCLC and in the experiment with UACC-62 melanoma was over 10 µM in each case. The TGI is over 10 µM in the experiment with OVCAR-4 ovarian; over 10 µM in the experiment with NCI/ADR-RES ovarian; 5.85 µM in the experiment with MDA-MB-231 breast; over 10 µM in the experiment with HCC-2998 colon; over 10 µM in the experiment on HS 578T breast.
In the case of `Cc1c(C(=O)c2ccc(N)c3ccccc23)c2ccccc2n1CCN1CCOCC1`, the TGI in the experiment on SNB-19 CNS was over 100 µM; in the experiment on HCT-116 colon it was 48.6 µM; in the experiment with DU-145 prostate, over 95.2 µM; in the experiment on SNB-75 CNS it was 47.4 µM; in the experiment with HOP-62 NSCLC it was over 90.1 µM; in the experiment on UACC-62 melanoma it was 40.6 µM. Besides, the TGI is over 47.8 µM in the experiment with OVCAR-4 ovarian; over 91.5 µM with NCI/ADR-RES ovarian; over 100 µM in the experiment on MDA-MB-231 breast; 59.9 µM in the experiment with HCC-2998 colon; 48.4 µM in the experiment with HS 578T breast.
`COc1cc2cc(C(=O)N3CC(COS(C)(=O)=O)c4ccc(NC(=O)OCc5ccccc5)cc43)[nH]c2c(OC)c1OC` (stereo not given): the TGI with SNB-19 CNS, in the experiment with HCT-116 colon, in the experiment with DU-145 prostate, with SNB-75 CNS, with HOP-62 NSCLC and in the experiment on UACC-62 melanoma was over 100 µM each time. For the same compound, the TGI in the experiment on OVCAR-4 ovarian, with NCI/ADR-RES ovarian, in the experiment with MDA-MB-231 breast, in the experiment on HCC-2998 colon and in the experiment with HS 578T breast was over 100 µM each time.
In the case of `O=C(Nc1sccc1S(=O)(=O)c1ccc(Cl)cc1)c1ccc(F)cc1F`, the TGI was 48.8 µM in the experiment with SNB-19 CNS; over 100 µM with HCT-116 colon; over 100 µM with DU-145 prostate; 38.8 µM in the experiment on SNB-75 CNS; 80.1 µM with HOP-62 NSCLC; 86.8 µM in the experiment with UACC-62 melanoma. Besides, the TGI is 53.9 µM in the experiment on OVCAR-4 ovarian; over 100 µM in the experiment on NCI/ADR-RES ovarian; 54 µM in the experiment with MDA-MB-231 breast; over 100 µM in the experiment on HCC-2998 colon; 80.5 µM with HS 578T breast.
In the case of `Fc1cccc(F)c1C1SCc2nc3cc(Cl)c(Cl)cc3n21` (stereo not given), the TGI in the experiment on SNB-19 CNS, in the experiment with HCT-116 colon, with DU-145 prostate, with SNB-75 CNS, in the experiment on HOP-62 NSCLC and in the experiment with UACC-62 melanoma was over 100 µM each time. Moreover, the TGI in the experiment with OVCAR-4 ovarian, in the experiment with NCI/ADR-RES ovarian, in the experiment on MDA-MB-231 breast, in the experiment with HCC-2998 colon and with HS 578T breast was over 100 µM in each case.
`CCOC(=O)/C(C(N)=O)=C(\O)C(=O)/C(Br)=C(\O)c1ccccc1`: the TGI in the experiment on SNB-19 CNS is over 69.1 µM; in the experiment on HCT-116 colon, 32 µM; in the experiment with DU-145 prostate it was 39.7 µM; with SNB-75 CNS, 32.1 µM; in the experiment with HOP-62 NSCLC, 41.5 µM; in the experiment on UACC-62 melanoma, 33.3 µM. For the same compound, the TGI in the experiment with OVCAR-4 ovarian came to 56.5 µM; in the experiment with NCI/ADR-RES ovarian it was 72.9 µM; in the experiment on MDA-MB-231 breast, 34.2 µM; in the experiment on HCC-2998 colon, 36.6 µM; in the experiment on HS 578T breast, 50.1 µM.
Regarding `C[C@@H]1[C@@H](C)C(c2ccccc2)O[Si]1(C(C)(C)C)C(C)(C)C` (stereo not given in full), the TGI in the experiment on SNB-19 CNS was found to be 18.3 µM; in the experiment with HCT-116 colon, 28.8 µM; with DU-145 prostate it was 31.6 µM; in the experiment on SNB-75 CNS, 29.9 µM; in the experiment on HOP-62 NSCLC it was 31.4 µM; with UACC-62 melanoma, 46.3 µM. Besides, the TGI in the experiment with OVCAR-4 ovarian is over 86.1 µM; with NCI/ADR-RES ovarian, 33 µM; in the experiment on MDA-MB-231 breast it was 31.3 µM; in the experiment with HCC-2998 colon, over 55.8 µM; in the experiment with HS 578T breast it was 42.6 µM.
Consider `N#Cc1nc2cc(Cl)ccc2nc1N1CCN(c2ccc([N+](=O)[O-])cc2)CC1`, for which the TGI in the experiment on SNB-19 CNS, with HCT-116 colon, with DU-145 prostate, in the experiment with SNB-75 CNS, in the experiment on HOP-62 NSCLC and in the experiment with UACC-62 melanoma was over 100 µM each time. For the same compound, the TGI in the experiment on OVCAR-4 ovarian, in the experiment on NCI/ADR-RES ovarian, in the experiment with MDA-MB-231 breast, in the experiment on HCC-2998 colon and in the experiment with HS 578T breast was over 100 µM throughout.
`CC(C)(C)OC(=O)[C@@H]1CCC(=O)N1C1(c2ccccc2)c2ccccc2-c2ccccc21`: the TGI with SNB-19 CNS, in the experiment on HCT-116 colon, with DU-145 prostate, in the experiment with SNB-75 CNS, in the experiment with HOP-62 NSCLC and in the experiment with UACC-62 melanoma was over 100 µM throughout. The TGI with OVCAR-4 ovarian is over 100 µM; in the experiment on NCI/ADR-RES ovarian, over 100 µM; in the experiment with MDA-MB-231 breast, 86.1 µM; in the experiment with HCC-2998 colon it was over 100 µM; in the experiment on HS 578T breast, over 100 µM.
On to `CC(C)(C)OC(=O)N/C(C=O)=C\C1CCCCC1`, for which the TGI in the experiment on SNB-19 CNS was 76.1 µM; with HCT-116 colon, 36 µM; in the experiment with DU-145 prostate, 95.9 µM; with SNB-75 CNS it was over 100 µM; with HOP-62 NSCLC, 58.9 µM; in the experiment on UACC-62 melanoma it was 30.7 µM. Besides, the TGI in the experiment with OVCAR-4 ovarian stood at 97.8 µM; in the experiment on NCI/ADR-RES ovarian it was 44.3 µM; in the experiment on MDA-MB-231 breast, 44.2 µM; with HCC-2998 colon it was 37.3 µM; with HS 578T breast, 84.7 µM.
